BindingDB's records for PubMed 2138666 (Department of Veterans Affairs Medical Center, 1990)

Columns and labels:
[1] = biological target: T1, Alpha-2C adrenergic receptor (Rattus norvegicus, UniProt P22086)
T1 sequence (P22086 whole entry): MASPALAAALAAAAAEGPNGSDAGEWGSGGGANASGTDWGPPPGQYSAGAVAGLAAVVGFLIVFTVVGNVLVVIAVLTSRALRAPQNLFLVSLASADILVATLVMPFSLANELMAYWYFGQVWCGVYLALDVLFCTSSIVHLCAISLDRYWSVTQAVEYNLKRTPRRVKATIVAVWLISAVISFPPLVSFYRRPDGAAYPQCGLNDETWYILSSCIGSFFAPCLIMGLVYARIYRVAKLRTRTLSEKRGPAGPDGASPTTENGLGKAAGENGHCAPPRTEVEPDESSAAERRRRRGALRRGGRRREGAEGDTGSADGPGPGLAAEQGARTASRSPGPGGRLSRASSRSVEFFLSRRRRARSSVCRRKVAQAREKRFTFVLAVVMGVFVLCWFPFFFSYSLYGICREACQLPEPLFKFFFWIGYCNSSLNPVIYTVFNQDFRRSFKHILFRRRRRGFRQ

[2] = biological target: D(2) dopamine receptor (Rattus norvegicus, UniProt P61169)
Sequence of D(2) dopamine receptor (P61169 whole entry): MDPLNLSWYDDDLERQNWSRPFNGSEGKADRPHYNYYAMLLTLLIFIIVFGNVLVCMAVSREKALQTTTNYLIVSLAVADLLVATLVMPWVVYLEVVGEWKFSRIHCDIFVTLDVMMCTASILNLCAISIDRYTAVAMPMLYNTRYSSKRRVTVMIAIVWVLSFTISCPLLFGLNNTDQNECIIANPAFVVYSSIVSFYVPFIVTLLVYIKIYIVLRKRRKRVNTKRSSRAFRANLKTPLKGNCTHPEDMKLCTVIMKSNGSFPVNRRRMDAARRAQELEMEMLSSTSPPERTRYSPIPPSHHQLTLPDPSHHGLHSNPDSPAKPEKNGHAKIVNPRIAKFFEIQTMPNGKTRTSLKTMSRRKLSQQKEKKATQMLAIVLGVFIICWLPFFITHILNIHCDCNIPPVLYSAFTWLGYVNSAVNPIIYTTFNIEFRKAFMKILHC

Row | Ki [1] [µM] | Ki [2] [µM] | SMILES
1 | 0.158 | – | CC(C)(C)[C@]1(O)CCN2C[C@H]3c4ccccc4CCc4cccc(c43)[C@@H]2C1
2 | – | > 10 | Clc1cccc(Cl)c1N=C1NCCN1 [2-(2,6-dichloroanilino)-2-imidazoline]
3 | 4.3 | – | CCN1CCCC1CNC(=O)c1cc(S(N)(=O)=O)ccc1OC (stereo not given) [N-[(1-ethylpyrrolidin-2-yl)methyl]-2-methoxy-5-sulfamoylbenzamide]
4 | – | > 10 | Nc1cc(Cl)c(N=C2NCCN2)c(Cl)c1 [p-AMINOCLONIDINE]

Row | SMILES | Ki [1] [µM] | Ki [2] [µM]
5 | c1ccc2c(c1)OCC(C1=NCCN1)O2 (stereo not given) | – | > 10
